Assay results reported in patent US10570184B2, “GLP-1/glucagon receptor co-agonists for medical use” (Novo Nordisk A/S, priority 2014, dated 2020).
Starred links: 1 amine or outer side, 2 acyl side, 3 side chain; linkers in the order of their positions; H or OH if unused. Non-standard residues stand in square brackets, D forms with d. Residues, ends and D or L forms follow the SMILES beside them. Groups on a side chain read outwards from the residue. *: point of attachment. C18 diacid = O=C(O)CCCCCCCCCCCCCCCCC(=O)*; γGlu = O=C(O)[C@H](CCC(=O)[*:2])N[*:1]; AEEA = NCCOCCOCC(=O)O; Aib = CC(C)(N)C(=O)O

Target: T1, human GLP-1 receptor (Homo sapiens, UniProt P43220)
T1 construct: expressed in transfected cells; host or cells: membranes of BHK cells (parent BHKTS13), clone FCW467-12A
T1 sequence (P43220 24-463): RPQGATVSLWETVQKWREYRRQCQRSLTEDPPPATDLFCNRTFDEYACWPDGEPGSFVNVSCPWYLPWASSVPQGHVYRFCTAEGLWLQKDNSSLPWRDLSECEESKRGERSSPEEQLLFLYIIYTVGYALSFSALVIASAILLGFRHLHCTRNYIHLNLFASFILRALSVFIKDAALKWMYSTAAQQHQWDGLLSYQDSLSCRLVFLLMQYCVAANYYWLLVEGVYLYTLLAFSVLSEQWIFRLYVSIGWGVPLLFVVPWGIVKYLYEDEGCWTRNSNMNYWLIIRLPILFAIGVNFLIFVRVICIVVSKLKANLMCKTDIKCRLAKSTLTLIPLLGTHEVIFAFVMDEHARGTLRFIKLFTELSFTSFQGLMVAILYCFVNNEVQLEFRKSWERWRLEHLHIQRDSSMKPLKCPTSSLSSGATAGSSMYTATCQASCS
Assay: Assay (II)(a) GLP-1 receptor binding, 125I-GLP-1 displacement SPA on BHK membranes
Details: without presence of serum albumin; read-out: GLP-1R IC50 (nM) [Assay (II)(a)]
Method: The GLP-1 receptor (GLP-1R) binding is a measure of affinity of a compound for the human GLP-1 receptor. The receptor binding of each compound to the human GLP-1 receptor was measured in a displacement binding assay. In this type of assay a labelled ligand (in this case 125I-GLP-1) is bound to the receptor. Each derivative was added in a series of concentrations to isolated membranes containing the human GLP-1 receptor and displacement of the labelled ligand was monitored. The receptor binding was reported as the concentration at which half of the labelled ligand was displaced from the receptor, the IC50 value. In order to test the binding of the derivatives to albumin, the assay may be performed in a very low concentration of serum albumin (max. 0.001% final assay concentration) as well as in the presence of a (considerably) higher concentration of serum albumin (2.0% final assay concentration). An increase of the IC50 value, in the presence of serum albumin indicates an affinity to serum albumin and represents a method to predict a protracted pharmacokinetic profile of the test substance in animal models. The following chemicals were used in the assay: DMEM w/o phenol red (Gibco 11880-028), Pen/strep (Invitrogen 15140-122), G418 (Invitrogen 10131-027), 1 M Hepes (Gibco 15630), EDTA (Invitrogen 15575-038), PBS (Invitrogen 14190-094), fetal calf serum (Invitrogen 16140-071), EGTA, MgCl2 (Merck 1.05832.1000), Tween 20 (Amresco 0850C335), SPA particles (wheat germ agglutinin (WGA) SPA beads, Perkin Elmer RPNQ0001), [125I]-GLP-1]-(7-36)NH2 (produced in-house), OptiPlate™-96 (Perkin Elmer). Buffer 1 consisted of 20 mM Na-HEPES plus 10 mM EDTA and pH was adjusted to 7.4. Buffer 2 consisted of 20 mM Na-HEPES plus 0.1 mM EDTA and pH was adjusted to 7.4. Assay buffer consisted of 50 mM HEPES supplemented with 5 mM EGTA, 5 mM MgCl2, 0.005% Tween 20 and pH was adjusted to 7.4. The cells used in this assay (clone FCW467-12A) were BHK cells with BHKTS13 as a parent cell line. The cells express the human GLP-1 receptor. The cells were grown at 5% CO2 in DMEM, 10% fetal calf serum, 1% Pen/Strep (Penicillin/Streptomycin) and 1.0 mg/ml of the selection marker G418. To make a membrane preparation the cells were grown to approximately 80% confluence. The cells were washed twice in phosphate-buffered saline and harvested. The cells were pelleted using a brief centrifugation and the cell pellet was kept on ice. The cell pellet was homogenised with ULTRA-THURRAX dispersing instrument for 20-30 seconds in a suitable amount of buffer 1 (e.g., 10 ml). The homogenate was centrifuged for 15 minutes. The pellet was re-suspended (homogenised) in 10 ml buffer 2 and centrifuged. This step was repeated once more. The resulting pellet was re-suspended in buffer 2 and the protein concentration was determined. The membranes were aliquoted and stored at minus 80° C. • 1. For the receptor binding assay, 50 μl of the assay buffer was added to each well of an assay plate. • 2. Test compounds were serially diluted to give the following concentrations: 8×10EE-7 M, 8×10EE-8 M, 8×10EE-9 M, 8×10EE-10 M, 8×10EE-11 M, 8×10EE-12 M and 8×10EE-13 M. Twenty-five μl were added to appropriate wells in the assay plate. • 3. Cell membrane aliquots were thawed and diluted to their working concentration. Fifty μl were added to each well in the assay plate. • 4. WGA SPA beads were suspended in assay buffer at 20 mg/ml. The suspension was diluted to 10 mg/ml in assay buffer just prior to addition to the assay plate. Fifty μl were added to each well in the assay plate. • 5. The incubation was started by adding 25 μl of […] solution of [125I]-GLP-1]-(7-36)NH2 to each well of the assay plate. A 25 μl aliquot was reserved for measuring total counts/well. • 6. The assay plate was incubated for 2 h at 30° C. • 7. The assay plate was centrifuged for 10 min. • 8. The assay plate was read in a Perkin Elmer TopCount NXT instrument. […]

| IC50 [nM] | SMILES |
| --- | --- |
| 0.5 | CC[C@H](C)[C@H](NC(=O)[C@H](CC(C)C)NC(=O)[C@H](Cc1c[nH]c2ccccc12)NC(=O)[C@H](CCCCNC(=O)COCCOCCNC(=O)COCCOCCNC(=O)CC[C@H](NC(=O)CC[C@H](NC(=O)CC[C@H](NC(=O)CCCCCCCCCCCCCCCCC(=O)O)C(=O)O)C(=O)O)C(=O)O)NC(=O)[C@@H](NC(=O)[C@H](Cc1ccccc1)NC(=O)[C@H](CC(=O)O)NC(=O)[C@H](CCCNC(=N)N)NC(=O)[C@H](C)NC(=O)[C@H](CCCNC(=N)N)NC(=O)[C@H](CCCNC(=N)N)NC(=O)[C@H](CO)NC(=O)[C@H](CCC(=O)O)NC(=O)[C@H](CC(C)C)NC(=O)[C@H](Cc1ccc(O)cc1)NC(=O)[C@H](CCCCN)NC(=O)[C@H](CO)NC(=O)[C@H](Cc1ccc(O)cc1)NC(=O)[C@H](CC(=O)O)NC(=O)[C@H](CO)NC(=O)[C@@H](NC(=O)[C@H](Cc1ccccc1)NC(=O)[C@@H](NC(=O)CNC(=O)[C@H](CCC(N)=O)NC(=O)C(C)(C)NC(=O)[C@@H](N)Cc1c[nH]cn1)[C@@H](C)O)[C@@H](C)O)C(C)C)C(=O)N[C@@H](CO)C(=O)N[C@H](C(N)=O)[C@@H](C)O [Chem. 11, N^ε24-[2-[2-[2-[[2-[2-[2-[[(4S)-4-carboxy-4-[[(4S)-4-carboxy-4-[[(4S)-4-carboxy-4-(17-carboxyheptadecanoylamino)butanoyl]amino]butanoyl]amino]butanoyl]amino]ethoxy]ethoxy]acetyl]amino]ethoxy]ethoxy]acetyl]-[Aib2,Glu15,Arg20,Lys24,Ile27,Ser28]-Glucagon amide] (H-H[Aib]QGTFTSDYSKYLESRRARDFVK([AEEA-AEEA-γGlu-γGlu-γGlu-C18 diacid])WLIST-NH2) |
| 0.1 | CC[C@H](C)[C@H](NC(=O)[C@H](CC(C)C)NC(=O)[C@H](Cc1c[nH]c2ccccc12)NC(=O)[C@H](CCC(N)=O)NC(=O)[C@@H](NC(=O)[C@H](Cc1ccccc1)NC(=O)[C@H](CC(=O)O)NC(=O)[C@H](CCCNC(=N)N)NC(=O)[C@H](C)NC(=O)[C@H](CCCNC(=N)N)NC(=O)[C@H](CCCNC(=N)N)NC(=O)[C@H](C)NC(=O)[C@H](CC(=O)O)NC(=O)[C@H](CC(C)C)NC(=O)[C@H](Cc1ccc(O)cc1)NC(=O)[C@H](CCCCN)NC(=O)[C@H](CO)NC(=O)[C@H](CC(C)C)NC(=O)[C@H](CC(=O)O)NC(=O)[C@H](CO)NC(=O)[C@@H](NC(=O)[C@H](Cc1ccccc1)NC(=O)[C@@H](NC(=O)CNC(=O)[C@H](CCC(N)=O)NC(=O)C(C)(C)NC(=O)[C@@H](N)Cc1c[nH]cn1)[C@@H](C)O)[C@@H](C)O)C(C)C)C(=O)N[C@@H](CCCCNC(=O)COCCOCCNC(=O)COCCOCCNC(=O)CC[C@H](NC(=O)CC[C@H](NC(=O)CC[C@H](NC(=O)CCCCCCCCCCCCCCCCC(=O)O)C(=O)O)C(=O)O)C(=O)O)C(=O)N[C@H](C(N)=O)[C@@H](C)O [Chem. 5, N^ε28-[2-[2-[2-[[2-[2-[2-[[(4S)-4-carboxy-4-[[(4S)-4-carboxy-4-[[(4S)-4-carboxy-4-(17-carboxyheptadecanoylamino)butanoyl]amino]butanoyl]amino]butanoyl]amino]ethoxy]ethoxy]acetyl]amino]ethoxy]ethoxy]acetyl]-[Aib2,Leu10,Ala16,Arg20,Ile27,Lys28]-Glucagon amide] (H-H[Aib]QGTFTSDLSKYLDARRARDFVQWLIK([AEEA-AEEA-γGlu-γGlu-γGlu-C18 diacid])T-NH2; N-terminus assumed) |
| 0.9 | CC[C@H](C)[C@H](NC(=O)[C@H](CC(C)C)NC(=O)[C@H](Cc1c[nH]c2ccccc12)NC(=O)[C@H](CCCCNC(=O)COCCOCCNC(=O)COCCOCCNC(=O)CC[C@H](NC(=O)CC[C@H](NC(=O)CC[C@H](NC(=O)CCCCCCCCCCCCCCCCC(=O)O)C(=O)O)C(=O)O)C(=O)O)NC(=O)[C@@H](NC(=O)[C@H](Cc1ccccc1)NC(=O)[C@H](CC(=O)O)NC(=O)[C@H](CCCNC(=N)N)NC(=O)[C@H](C)NC(=O)[C@H](CCCNC(=N)N)NC(=O)[C@H](CCCNC(=N)N)NC(=O)[C@H](C)NC(=O)[C@H](CC(=O)O)NC(=O)[C@H](CC(C)C)NC(=O)[C@H](Cc1ccc(O)cc1)NC(=O)[C@H](CCCCN)NC(=O)[C@H](CO)NC(=O)[C@H](Cc1ccc(O)cc1)NC(=O)[C@H](CC(=O)O)NC(=O)[C@H](CO)NC(=O)[C@@H](NC(=O)[C@H](Cc1ccccc1)NC(=O)[C@@H](NC(=O)CNC(=O)[C@H](CCC(N)=O)NC(=O)C(C)(C)NC(=O)[C@@H](N)Cc1c[nH]cn1)[C@@H](C)O)[C@@H](C)O)C(C)C)C(=O)N[C@@H](CO)C(=O)N[C@H](C(N)=O)[C@@H](C)O [Chem. 1, N^ε24-[2-[2-[2-[[2-[2-[2-[[(4S)-4-carboxy-4-[[(4S)-4-carboxy-4-[[(4S)-4-carboxy-4-(17-carboxyheptadecanoylamino)butanoyl]amino]butanoyl]amino]butanoyl]amino]ethoxy]ethoxy]acetyl]amino]ethoxy]ethoxy]acetyl]-[Aib2,Ala16,Arg20,Lys24,Ile27,Ser28]-Glucagon amide] (H-H[Aib]QGTFTSDYSKYLDARRARDFVK([AEEA-AEEA-γGlu-γGlu-γGlu-C18 diacid])WLIST-NH2) |
| 0.1 | CC[C@H](C)[C@H](NC(=O)[C@H](CC(C)C)NC(=O)[C@H](Cc1c[nH]c2ccccc12)NC(=O)[C@H](CCC(N)=O)NC(=O)[C@@H](NC(=O)[C@H](Cc1ccccc1)NC(=O)[C@H](CC(=O)O)NC(=O)[C@H](CCC(N)=O)NC(=O)[C@H](C)NC(=O)[C@H](CCCNC(=N)N)NC(=O)[C@H](CCCNC(=N)N)NC(=O)[C@H](C)NC(=O)[C@H](CC(=O)O)NC(=O)[C@H](CC(C)C)NC(=O)[C@H](Cc1ccc(O)cc1)NC(=O)[C@H](CCCCN)NC(=O)[C@H](CO)NC(=O)[C@@H](NC(=O)[C@H](CC(=O)O)NC(=O)[C@H](CO)NC(=O)[C@@H](NC(=O)[C@H](Cc1ccccc1)NC(=O)[C@@H](NC(=O)CNC(=O)[C@H](CCC(N)=O)NC(=O)C(C)(C)NC(=O)[C@@H](N)Cc1c[nH]cn1)[C@@H](C)O)[C@@H](C)O)C(C)C)C(C)C)C(=O)N[C@@H](CCCCNC(=O)CC[C@H](NC(=O)COCCOCCNC(=O)COCCOCCNC(=O)CC[C@H](NC(=O)CC[C@H](NC(=O)CCCCCCCCCCCCCCCCC(=O)O)C(=O)O)C(=O)O)C(=O)O)C(=O)N[C@H](C(N)=O)[C@@H](C)O [Chem. 39, N^ε28-[(4S)-4-carboxy-4-[[2-[2-[2-[[2-[2-[2-[[(4S)-4-carboxy-4-[[(4S)-4-carboxy-4-(17-carboxyheptadecanoylamino)butanoyl]amino]butanoyl]amino]ethoxy]ethoxy]acetyl]amino]ethoxy]ethoxy]acetyl]amino]butanoyl]-[Aib2,Val10,Ala16,Ile27,Lys28]-Glucagon amide] (H-H[Aib]QGTFTSDVSKYLDARRAQDFVQWLIK([γGlu-AEEA-AEEA-γGlu-γGlu-C18 diacid])T-NH2; N-terminus assumed) |
